# Patent US10557129B2, “Peptides derived from human PCSK9 catalytic domain and uses thereof for promoting LDL-R activity” (Pronasci Inc., priority 2015, dated 2020)
# What was measured:
# [1] = Model fluorescence quenching of FI-Bio-Ahx-Lys-Methyl ester (IIId) by biotin-binding proteins; settings: for maximal quenching of fluorescence intensity of (IIId): data not shown; for quenching of fluorescence intensity of (IIId): 8:1 molar ratio protein:(IIId), FIGS. 7A, 7B
# Procedure: FIG. 7A illustrates fluorescence scan spectroscopy of FI-Bio-Ahx-Lys-Methyl ester (IIId) in presence of avidin.
# FIG. 7B illustrates fluorescence scan spectroscopy of FI-Bio-Ahx-Lys-Methyl ester (IIId) in presence of insulin as control peptide. […] For each experiment 5 μl of 0.5 mM (IIId) peptide in water was used.
# Previously a number of studies reported that the interaction between two ligands one of which is fluorescence labeled can be followed by studying fluorescence intensity. In general the fluorescence intensity is suppressed with or without shift of emission peak position when there is a strong interaction between the two ligands. Greater the suppression or quenching of fluorescence intensity, greater is the strength of binding. In order to further confirm the above notion, a study was carried out by using a fixed concentration of fluorescent biotinylated peptide (IIId) and increasing doses of avidin protein. […] These avidin analogs with varying binding affinity towards biotin have been developed and made available through commercial organizations [Polyscience Inc., Technical Data Sheet Report-779]. […] This study confirms that fluorescence quenching is an indicator of binding between two ligands one of which is fluorescently labeled.
# [2] = Molecular Probes handbook; read-out: Kd with biotin; cited from earlier work
# [3] = system: LDL-R; assay: Rescue of LDL-R level in cells after addition of rec-PCSK9 protein (HuH7); type: cell-based, human
# Procedure: FIG. 13 illustrates (A) Western blot analyses showing the quantitation of LDL-R and PCSK9 levels under various conditions in HepG2 cells. These are western blot figures showing the effect of externally added FI-EGF-A peptide on exogenous levels of LDL-R and PCSK9 in growing HepG2 cells. The cells were harvested after 24 h and whole cell lysates were used for analysis of LDL-R, PCSK9 and actin levels both for control sample (DMSO) and FI-EGF-A done in duplicates. Actin was used as a house keeping control protein for quantitation purpose. (B): Rescue effect of FI-EGF-A peptide added in increasing concentration levels on LDL-R in growing HuH7 cells in the presence of added rec-PCSK9 protein. […]
# (§1) In general 20 μg of WCLs derived from various peptide treated HepG2 cell experiments was resolved by conventional 12% SDS-PAGE (Laemmli, 1970 #2). Resolved samples were then transferred to polyvinylidene fluoride (Bio-Rad #162-0177) and probed for LDL-R (R&D Systems #AF2148), hPCSK9 (Circulex #CY-M1033), Transferrin Recepter (TR) (Invitrogen #13-6800), αβ-actin-HRP (Horse Radish Peroxidase) (abcam #ab49900) and αFLAG-HRP (abcam #1238) primary antibodies and detected with α goat-HRP (abcam #ab6741) or a mouse-HRP (Bio-Rad #172-1011) secondary antibodies and visualized on a Bio-Rad versa dock imaging system using Clarity ECL Western Substrate (Bio-Rad #170-5060). […]
# [4] = biological target: T1, LDL-R (Homo sapiens, UniProt P01130); assay: LDL-R level in HepG2 cells by western blot of whole cell lysates; type: cell-based
# T1 construct: western blot analyses for endogenous LDL-R; endogenous in cells; host or cells: HepG2
# T1 sequence (P01130 22-860): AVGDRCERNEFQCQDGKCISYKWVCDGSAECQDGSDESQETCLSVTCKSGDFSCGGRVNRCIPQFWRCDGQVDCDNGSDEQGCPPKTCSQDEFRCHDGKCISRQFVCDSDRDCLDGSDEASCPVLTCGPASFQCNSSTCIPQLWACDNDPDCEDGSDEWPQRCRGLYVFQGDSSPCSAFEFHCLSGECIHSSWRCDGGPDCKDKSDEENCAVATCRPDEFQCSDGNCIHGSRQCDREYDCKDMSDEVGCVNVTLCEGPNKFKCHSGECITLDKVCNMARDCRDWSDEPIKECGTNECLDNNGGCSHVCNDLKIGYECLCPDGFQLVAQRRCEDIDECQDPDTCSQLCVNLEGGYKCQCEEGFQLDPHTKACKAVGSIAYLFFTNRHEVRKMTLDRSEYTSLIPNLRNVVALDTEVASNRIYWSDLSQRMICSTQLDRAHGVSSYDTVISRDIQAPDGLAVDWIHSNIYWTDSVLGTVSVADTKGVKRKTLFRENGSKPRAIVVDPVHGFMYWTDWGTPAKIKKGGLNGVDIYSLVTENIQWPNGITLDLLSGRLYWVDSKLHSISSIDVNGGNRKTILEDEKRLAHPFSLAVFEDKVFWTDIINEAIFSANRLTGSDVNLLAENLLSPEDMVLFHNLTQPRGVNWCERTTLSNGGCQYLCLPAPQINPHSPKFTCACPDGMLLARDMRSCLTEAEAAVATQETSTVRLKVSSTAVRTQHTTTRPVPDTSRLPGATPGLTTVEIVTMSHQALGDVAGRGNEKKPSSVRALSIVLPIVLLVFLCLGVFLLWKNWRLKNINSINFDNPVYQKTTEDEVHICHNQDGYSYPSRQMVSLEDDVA
# Procedure: (§2) FIG. 13 illustrates (A) Western blot analyses showing the quantitation of LDL-R and PCSK9 levels under various conditions in HepG2 cells. These are western blot figures showing the effect of externally added FI-EGF-A peptide on exogenous levels of LDL-R and PCSK9 in growing HepG2 cells. The cells were harvested after 24 h and whole cell lysates were used for analysis of LDL-R, PCSK9 and actin levels both for control sample (DMSO) and FI-EGF-A done in duplicates. Actin was used as a house keeping control protein for quantitation purpose. (B): Rescue effect of FI-EGF-A peptide added in increasing concentration levels on LDL-R in growing HuH7 cells in the presence of added rec-PCSK9 protein. Rec-PCSK9 was incubated with various amounts of FI-EGF-A for 3 h at room temp and then applied to cells growing in 2 mL media to the concentrations as indicated in the figure. The cells were harvested 7 h later.
# (§3) FIG. 14 illustrates Western blots showing PCSK9 and LDL-R levels in the presence of various PCSK9 catalytic peptides in HepG2 cell. […]
# The number passages of cell lines used were 6-8 times until they are at least 80% confluent as determined by microscope. […] All culture samples including whole cell lysate (WCL) were analysed for their protein contents using Pierce BCA (Bicinchoninic acid) reagent method or Bradford assay (Bio-Rad #500-0205) as described later.
# as §1
# [5] = biological target: T1, LDL-R; settings: added exogenously to growing HepG2 cells; cited from earlier work
# [6] = system: PCSK9; assay: PCSK9 level in HepG2 cells by western blot of whole cell lysates; type: cell-based, human; settings: HepG2, 12 μg/ml, 24 h; FIG. 13A
# Procedure: as §2, §3
# The number passages of cell lines used were 6-8 times until they are at least 80% confluent as determined by microscope. […] All culture samples including whole cell lysate (WCL) were analysed for their protein contents using Pierce BCA (Bicinchoninic acid) reagent method or Bradford assay (Bio-Rad #500-0205) as described later. […]
# [7] = biological target: T2, recombinant hPCSK9 wild type (Homo sapiens, UniProt Q8NBP7); assay: SDS-PAGE fluorescence / western blot binding of FI-EGF-A to recombinant FLAG-hPCSK9; settings: 5 μg FI-EGF-A + 1 μg rec-hPCSK9 WT, 2 h room temperature; fluorescent band at ~65 kDa; FIG. 12
# T2 construct: complex formation between 60 kDa rec-hPCSK9 mature form with 5 kDa FI-EGF-A; made in house
# T2 sequence (Q8NBP7 153-692): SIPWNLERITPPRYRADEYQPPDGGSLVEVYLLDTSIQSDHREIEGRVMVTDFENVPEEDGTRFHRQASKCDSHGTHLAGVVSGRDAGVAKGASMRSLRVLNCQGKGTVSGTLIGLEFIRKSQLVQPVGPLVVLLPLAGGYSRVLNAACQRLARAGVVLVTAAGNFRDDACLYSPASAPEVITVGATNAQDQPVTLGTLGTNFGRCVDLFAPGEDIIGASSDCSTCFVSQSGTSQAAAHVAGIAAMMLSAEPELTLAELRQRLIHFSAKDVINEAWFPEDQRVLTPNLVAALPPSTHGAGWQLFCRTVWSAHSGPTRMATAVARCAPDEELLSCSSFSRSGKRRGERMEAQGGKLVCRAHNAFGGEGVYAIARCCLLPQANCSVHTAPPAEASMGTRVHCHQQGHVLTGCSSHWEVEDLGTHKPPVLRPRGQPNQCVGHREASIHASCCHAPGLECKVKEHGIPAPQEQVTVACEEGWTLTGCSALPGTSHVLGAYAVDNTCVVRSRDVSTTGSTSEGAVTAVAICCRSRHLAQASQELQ
# T2 sequence (Q8NBP7 31-152 partner limits assumed): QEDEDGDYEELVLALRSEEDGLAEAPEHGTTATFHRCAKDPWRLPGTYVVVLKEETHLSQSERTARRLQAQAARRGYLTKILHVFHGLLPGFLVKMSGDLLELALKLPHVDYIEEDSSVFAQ
# Procedure: FIG. 12 illustrates SDS-Gel electrophoresis of FI-EGF-A peptide in presence and absence of recombinant hPCSK9 protein. 5 μg of FI-EGF-A (Ib) was incubated with 1 μg rec-hPCSK9 wild type (WT) for 2 h at room temperature. The samples were resolved in 10% SDS PAGE. Left: Fluorescence detection; Right: Western blot using anti-FLAG as primary antibody. There is a fluorescence positive band around 65 kDa (a mobility shift by ˜5 kDa) shown by thick arrow indicating complex formation between 60 kDa rec-hPCSK9 mature form with 5 kDa FI-EGF-A (Ib) (Left panel). […] It is also noticed that after incubation with FI-EGF-A peptide, the 74 kDa PCSK9 protein is not recognized by anti-FLAG antibody while the 60 kDa hPCSK9 protein is still recognized but with reduced potency. […]
# Binding assays of various PCSK9 peptides were carried out by incubating 15 μg of each peptide (˜0.008 mM) with 20 μg of FL-EGF-A in a final volume of 20 μl of 25 mM HEPES (pH 7.4), 150 mM NaCl, 2 mM CaCl2 for 2 h at 37° C. Similar study was also performed using recPCSK9 wild type as well as D/Y variants against FI-EGF-A. Each sample along with the control without any added peptide was assessed for any binding between FI-EGF-A and peptide using fluorescence study, Mass spectrometry and Native gel studies […]
substance,measurement,setting,value
streptavidin: avidin analog with binding affinity towards biotin,maximal quenching of fluorescence intensity of (IIId),[1],~81.4%
same,Kd,[2],~0.1 nM
avidin: biotin-binding protein,quenching of fluorescence intensity of (IIId),[1],~98%
GEDIIGASSDCSTCFVSQSG [CP3],rescue of LDL-R level following degradation by externally added PCSK9 protein,[3]; cell line not stated at the place (HepG2 or HuH7),can rescue LDL-R level to a significant level
same,LDL-R promoting activity,"[4]; HepG2, 5.5 μM, FIG. 16",modest but significant LDL-R promoting activity
h insulin: control peptide which does not bind with biotin,quenching of fluorescence intensity of (IIId),[1],30%
Nutravidin: avidin analog with binding affinity towards biotin,maximal quenching of fluorescence intensity of (IIId),[1],85%
Captavidin: avidin analog with binding affinity towards biotin,maximal quenching of fluorescence intensity of (IIId),[1],75.5%
"(aa368-390): peptide of catalytic segment of hPCSK9 (aa368-390) from a previous study (IIGASSDCSTCFVSQSGTSQAAA; UniProt Q8NBP7 368-390, looked up, fragment)",LDL-R promoting effect (previous study),[5],modest LDL-R promoting effect
^365GEDIIGASSDASTCFVSQSG^384 [CP3-C/A],LDL-R promoting effect of acyclic mutant compared with CP3,"[4]; HepG2, FIG. 16",completely lost
FI-EGF-A: 5-Carboxy Fluorescein N-terminally labeled 42 aa EGF-A domain peptide of hLDL-R (aa314-355),restoration of LDL-R level after rec-PCSK9,"[3]; HuH7 cells, rec-PCSK9 20 μg/ml, increasing amounts of FI-EGF-A, FIG. 13B",partly restored gradually
same,PCSK9 level versus DMSO control,[6],marked up regulation of PCSK9
same,complex formation with recPCSK9,[7],forms a stable complex
same,LDL-R level versus DMSO control,"[4]; HepG2, 12 μg/ml, 24 h, standardized against actin, FIG. 13A",significant up regulation of the LDL-R
"(aa181-200): peptide of catalytic segment of hPCSK9 (aa181-200) from a previous study (EVYLLDTSIQSDHREIEGRV; UniProt Q8NBP7 181-200, looked up, fragment)",LDL-R promoting effect (previous study),[5],modest LDL-R promoting effect
